Where two headings read alike, the source gives them in different places.
What was measured:
[1] = system: dopamine-β-hydroxylase; assay: Noradrenaline and dopamine levels of the cerebrum (brain) in rats, % of controls; type: in vivo, male Wistar rats; settings: rat, 4 hours
Description: (§1) The dopamine-β-hydroxylase inhibiting effects of the new compounds according to the invention were examined by the following tests:
(§2) The tests were performed on male Wistar rats weighing 150 to 200 g. The dopamine-β-hydroxylase inhibiting effects of the compounds were evaluated by determining the change of noradrenaline, dopamine and adrenaline levels of the cerebrum, heart, spleen and adrenal gland. The serotonine and 5-hydroxy-indolylacetic acid levels of the cerebrum were also determined. The measurements were performed as follows:
(§3) The animals were decapitated, the cerebrum, heart, spleen and adrenal gland were removed quickly, and the organs were frozen by placing them on a metal sheet cooled with dry ice. The frozen organs were stored for a maximum of one night at -20° C.
(§4) The organs were weighed in the frozen state and then homogenized in 5.0 ml of 0.4 N perchloric acid containing 0.05% of EDTA-Naa and 0.1% of Na2 S2 O5. The homogenized mixtures were centrifuged as described above for the treatment of adrenal gland, the supernatants were decanted, and the pH was adjusted to 8.0±0.1 with a 0.1 molar tris buffer containing 20 g/l of NaOH and 25 g/l of EDTA-Na2. 100 mg of prepared Al2 O3 (Anton et al.: J. Pharm. Ther. 138, 360 (1962)) were added to the samples, and the mixtures were shaken mechanically for 20 minutes. Thereafter the Al2 O3 was washed with 2×10 ml of distilled water, and noradrenaline was eluted with 1.0 ml of 0.05 N perchloric acid. 0.5 ml samples of the eluate were used for the determination of noradrenaline. Noradrenaline was determined according to the method of Shellenberger et al. (Anal. Biochem. 39, 356 (1971)), with the following modifications of the basic procedure: 0.5 ml of 0.1 molar Na-K-phosphate buffer, containing 9 g/l of EDTA-Na2, were added to 0.5 ml of the eluate, and the catecholamines (noradrenaline in the examination of heart and spleen and noradrenaline and dopamine in the examination of the cerebrum) were oxidized with 0.1 ml of a 0.1 N iodine solution in 5% potassium iodide. After exactly 2 minutes, oxidation was stopped by adding 0.25 ml of a 2.5% sodium sulfite solution in 4.4 N aqueous sodium hydroxide to the mixture. 2 minutes after the introduction of the alkaline sulfite solution, 0.2 ml of concentrated acetic acid was added to the samples, whereupon the pH decreased to 4.4 to 4.5. Thereafter the samples were placed for 5 minutes in a drying oven heated to 100° C., and then the samples were cooled with ice water. The fluorescency of noradrenaline was measured with an OPTON spectrophotometer at wavelengths of 380 nm (excitation) and 490 nm (emission).
The brains were homogenized in 10 parts by volume of 0.4 N perchloric acid. The homogenized mixture was stored at -20° C. overnight; thereafter it was thawed and centrifuged as described above. A sample of the homogenized mixture corresponding to 0.5 g of brain was removed, the pH of the sample was adjusted to 8.0±0.1 with 0.1 molar tris-buffer of the above composition, and the sample was processed as described above for the determination of the noradrenaline content of heart and spleen, with the difference that 1.5 ml of 0.05 N perchloric acid was used as the eluting agent. 0.5 ml of the eluate was used to determine the noradrenaline and dopamine contents. The measurement was performed as described above, with the difference that samples of 0.5 ml were applied for the recording of the flourescence of noradrenaline. The residue was placed for 50 minutes into a drying oven heated to 100° C., thereafter the sample was cooled with ice water, and the fluorescence of dopamine was recorded at wavelengths of 325 nm (excitation) and 380 nm (emission).
In a further test series the serotonine and 5-hydroxy-indolylacetic acid contents were also determined, in addition to the determination of the noradrenaline and dopamine content, from the same sample. […]

[2] = system: serotonine and 5-hydroxy-indolylacetic acid levels of the cerebrum; assay: Serotonine and 5-hydroxy-indolylacetic acid levels of the cerebrum (brain) in rats, % of controls; type: in vivo, male Wistar rats; settings: for response vs control in vivo at 500 mg/kg: po, p.o.
Description: as §2, §3
In a further test series the serotonine and 5-hydroxy-indolylacetic acid contents were also determined, in addition to the determination of the noradrenaline and dopamine content, from the same sample. In this instance the brains were homogenized in 10 ml of 75% ethanol, 0.2 ml of EDTA-Na2 and 5% of ascorbic acid were added to the homogenized mixtures, and the homogenized mixtures were maintained at -20° C. overnight. The mixtures were centrifuged as described above, and 5.0 ml samples of the supernatant were removed. The samples were diluted with equal volumes of distilled water, and poured onto ion exchange columns of 0.5×1.5 cm dimensions, filled with buffered Amberlite CG-30 (200 to 400 mesh). The columns were washed with 5 ml of distilled water followed by 1.0 ml of 0.2 N hydrochloric acid, and the first effluent and the aqueous wash were collected for the determination of 5-hydroxy-indolylacetic acid. Elution was continued with a further 1.2 ml quantity of 0.2 N hydrochloric acid in order to remove noradrenaline, dopamine and serotonine. Samples of 0.3 ml were used for the determinations.
Noradrenaline and dopamine were determined by the method of Shellenberger, modified as described above, whereas serotonine was determined by the method of Curzon et al. (Brit. J. Pharmacol. 39, 653 (1970)). The basic method was modified as follows: A 0.5% solution of ortho-phthal(di)aldehyde in absolute ethanol was diluted with […] hydrochloric acid to 50-fold of its original volume, and 0.6 ml of the resulting 0.01% ortho-phthal(di)aldehyde solution were added immediately to 0.5 ml of the serotonine-containing sample. The sample was placed in a hot water bath for 10 minutes, thereafter cooled with tap water, and the flourescence was recorded at wavelengths of 360 nm (excitation) and 490 nm (emission).
5-Hydroxy-indolylacetic acid was determined from the mixture of the first effluent and the aqueous wash. 10 ml of distilled water and 0.2 ml of concentrated hydrochloric acid were added to the mixture, and the sample was poured onto a 0.8×4.0 cm column filled with Sephadex G-10. The column was washed with 15 ml of 0.1 N hydrochloric acid followed by 1.8 to 2.0 ml of 0.02 N aqueous ammonia, and then 5-hydroxy-indolylacetic acid was eluted with further 2.0 ml of the aqueous ammonia. 0.5 ml samples were used in the measurements, and the determination was performed according to the method of Korf et al. (Biochem. Pharmacol. 20, 659 (1971)).
(§5) In the tests disulfiram, 2,2-dipyridyl, bis(1-methyl-4-homopiperazinyl-thiocarbonyl)-disulfide, sodium diethyldithiocarbamate and N-phenyl-N'-(2-thiazolyl)-thiourea were used as reference substances. The values indicated in Table 1 are the percentages in relation to the amine levels of the controls measured in the same tests (±standard error). The statistical calculations were performed on a TPA/i type computer, using Student's t test.

[3] = system: dopamine-β-hydroxylase; assay: Noradrenaline level of heart in rats, % of controls; type: in vivo, male Wistar rats; settings: rat, 4 hours
Description: as §1, §2, §3, §4, §5

[4] = system: dopamine-β-hydroxylase; assay: Noradrenaline level of spleen in rats, % of controls; type: in vivo, male Wistar rats; settings: rat, i.p., 4 hours
Description: as §1
The tests were performed on male Wistar rats weighing 150 to 200 g. The dopamine-β-hydroxylase inhibiting effects of the compounds were evaluated by determining the change of noradrenaline, dopamine and adrenaline levels of the cerebrum, heart, spleen and adrenal gland. The serotonine and 5-hydroxy-indolylacetic acid levels of the cerebrum were also determined. The measurements were performed as follows: […]
The organs were weighed in the frozen state and then homogenized in 5.0 ml of 0.4 N perchloric acid containing 0.05% of EDTA-Naa and 0.1% of Na2 S2 O5. […] Noradrenaline was determined according to the method of Shellenberger et al. (Anal. Biochem. 39, 356 (1971)), with the following modifications of the basic procedure: 0.5 ml of 0.1 molar Na-K-phosphate buffer, containing 9 g/l of EDTA-Na2, were added to 0.5 ml of the eluate, and the catecholamines (noradrenaline in the examination of heart and spleen and noradrenaline and dopamine in the examination of the cerebrum) were oxidized with 0.1 ml of a 0.1 N iodine solution in 5% potassium iodide. […] The fluorescency of noradrenaline was measured with an OPTON spectrophotometer at wavelengths of 380 nm (excitation) and 490 nm (emission). […]

[5] = system: dopamine-β-hydroxylase; assay: Adrenaline level of adrenal gland in rats, % of controls; type: in vivo, male Wistar rats; settings: rat, 4 hours
Description: as §1, §2, §3
The adrenal glands were freed from fat and homogenized in 3.0 ml of ice-cold 0.4 N perchloric acid. The homogenized mixtures were centrifuged for 10 minutes at 0° C. with a speed of 3200 r.p.m. using a Janetzky K-70 type centrifuge. 0.05 ml samples were taken from the supernatant, and the adrenaline level was determined directly by the method of Laverty et al. (Anal. Biochem. 22, 269 (1968)).
as §5

[6] = in vivo; settings: mouse, in vivo, mice
[7] = system: dopamine-β-hydroxylase; settings: in vitro conditions, literature; cited from earlier work
[8] = system: mice; assay: in vivo

## c1ccc(-c2ccccn2)nc1 [2,2-D, 2,2-dipyridyl]
[1]; i.p., 37.5 mg/kg
  Brain DA level (percentages in relation to the controls): 116%
  Brain NA level (percentages in relation to the controls): 79.5%
[1]; i.p., 75 mg/kg
  Brain DA level (percentages in relation to the controls): 95%
  Brain NA level (percentages in relation to the controls): 41.2%
[2]; Rattus norvegicus, ip, 4 h, read-out: Brain SE level (percentages in relation to the controls)
  response vs control in vivo at 75 mg/kg: 100%
[3]; i.p., 37.5 mg/kg
  Heart NA level (percentages in relation to the controls): 104%
[3]; i.p., 75 mg/kg
  Heart NA level (percentages in relation to the controls): 58%
[4]; 37.5 mg/kg
  Spleen NA level (percentages in relation to the controls): 100%
[5]; i.p., 37.5 mg/kg
  Adrenal gland adrenaline level (% of controls): 80%
[5]; i.p., 75 mg/kg
  Adrenal gland adrenaline level (% of controls): 63%
[6]; ip
  LD50: 280 mg/kg
[7]
  dopamine-β-hydroxylase inhibition in vitro, in words: effective under in vitro conditions

## CCCCNC1=C(C([O-])=S)CCC1.CCCCNC1=C(C([O-])=S)CCC1.[Zn+2] [M-3, 2-(N-butyl)-amino-cyclopent-1-ene-thiocarboxylic acid (zinc salt)]
[1]; i.p., 50 mg/kg
  Brain DA level (percentages in relation to the controls): 112.2 ± 12.0%
  Brain NA level (percentages in relation to the controls): 85.0 ±9.1%
[1]; i.p., 100 mg/kg
  Brain DA level (percentages in relation to the controls): 121.3 ± 6.1%
  Brain NA level (percentages in relation to the controls): 73.5 ± 3.2%
[1]; p.o., 500 mg/kg
  Brain DA level (percentages in relation to the controls): 99.2 ±5.0%
  Brain NA level (percentages in relation to the controls): 98.9 ±2.5%
[3]; i.p., 50 mg/kg
  Heart NA level (percentages in relation to the controls): 84.5±4.1%
[3]; i.p., 100 mg/kg
  Heart NA level (percentages in relation to the controls): 91.5 ± 8.1%
[3]; p.o., 500 mg/kg
  Heart NA level (percentages in relation to the controls): 108.8 ±3.2%
[5]; i.p., 50 mg/kg
  Adrenal gland adrenaline level (% of controls): 66.3%
[5]; i.p., 100 mg/kg
  Adrenal gland adrenaline level (% of controls): 60.5 ± 3.6%
[5]; p.o., 500 mg/kg
  Adrenal gland adrenaline level (% of controls): 100.3 ±8.3%
[8]; i.p.
  LD50: ~ 450 mg/kg

## COCCNC1=C(C(=S)SSC(=S)C2=C(NCCOC)CCC2)CCC1 [M-4, 2-(N-methoxyethyl)-amino-cyclopent-1-ene-thiocarboxylic acid disulfide]
[2]; ip, rat, i.p., 4 hours, read-out: Brain 5-HIAA level (percentages in relation to the controls)
  response vs control in vivo at 100 mg/kg: 108 ± 9.6%
[2]; ip, rat, i.p., 4 hours, read-out: Brain SE level (percentages in relation to the controls)
  response vs control in vivo at 100 mg/kg: 113 ± 2.8%
[2]; ip, rat, i.p., 200 mg/kg, 4 hours, read-out: Brain 5-HIAA level (percentages in relation to the controls)
  response vs control in vivo at 200 mg/kg: 151%
[2]; ip, rat, i.p., 200 mg/kg, 4 hours, read-out: Brain SE level (percentages in relation to the controls)
  response vs control in vivo at 200 mg/kg: 113 ± 5.6%
[2]; ip, rat, i.p., 200 mg/kg, 8 hours, read-out: Brain 5-HIAA level (percentages in relation to the controls)
  response vs control in vivo at 200 mg/kg: 161%
[2]; ip, rat, i.p., 200 mg/kg, 8 hours, read-out: Brain SE level (percentages in relation to the controls)
  response vs control in vivo at 200 mg/kg: 106 ± 7.5%
[2]; rat, 4 hours, read-out: Brain 5-HIAA level (percentages in relation to the controls)
  response vs control in vivo at 500 mg/kg: 95.4 ± 6%
[2]; rat, 4 hours, read-out: Brain SE level (percentages in relation to the controls)
  response vs control in vivo at 500 mg/kg: 103 ± 5.3%
[2]; rat, 8 hours, read-out: Brain 5-HIAA level (percentages in relation to the controls)
  response vs control in vivo at 500 mg/kg: 106 ± 4.9%
[2]; rat, 8 hours, read-out: Brain SE level (percentages in relation to the controls)
  response vs control in vivo at 500 mg/kg: 90.9 ± 6.7%
[3]; p.o., 500 mg/kg
  Heart NA level (percentages in relation to the controls): 86.4 ± 10.1%
[6]; ip
  LD50: > 1500 mg/kg

## S=C(Nc1ccccc1)Nc1nccs1 [U-14624, N-phenyl-N'-(2-thiazolyl)-thiourea]
[1]; i.p., 200 mg/kg
  Brain DA level (percentages in relation to the controls): 121%
  Brain NA level (percentages in relation to the controls): 31.6%
[2]; rat, i.p., 200 mg/kg, 4 hours
  Brain 5-HIAA level (percentages in relation to the controls): 175%
  Brain SE level (percentages in relation to the controls): 137%
[3]; i.p., 200 mg/kg
  Heart NA level (percentages in relation to the controls): 106%
[4]; 200 mg/kg
  Spleen NA level (percentages in relation to the controls): 111%
[5]; i.p., 200 mg/kg
  Adrenal gland adrenaline level (% of controls): 72%
[6]; ip
  LD50: ~680 mg/kg
[6]; po
  LD50: > 1000 mg/kg

## Chlorofusaric acid
[8]; p.o.
  LD50: 470 ± 85 mg/kg

Source: patent publication US4179467A, “Dopamine hydroxylase inhibiting 2-amino-cyclopent-1-ene-1-thiocarboxylic acid-disulfides” (Richter Gedeon Vegyeszeti Gyar Rt., priority 1976, dated 1979)
